Data from EPA's ToxValDB 9.5.
Values joined by “and” are separate entries in the source; they are usually repeats but may differ in a detail not shown here. Identical values can stand only once.

Legend:
Mus musculus = settings: oral
[1] = developmental, duration: 17 days, F, CD1, Developmental: 323% increased prenatal loss, 16.7% decreased live fetuses, 24.3% decreased neonatal survival
[2] = developmental, duration: 17 days, F, Developmental: Significantly reduced pup survival (46%) from birth to weaning
[3] = reproduction developmental, duration: 17 days, M, CD1, Body Weight: 32% reduced weight gain during pregnancy
[4] = short-term, duration: 14 days, M, CD1, 6-12% decreased in body weight gain
[5] = short-term, duration: 15 days, F, Body Weight: Weight loss (~5%)
[6] = short-term, duration: 15 days, F, Immunotoxicological: Reduced sRBC-specific response to IgM antibody titers
[7] = short-term, duration: 21 days, M, ICR, Body Weight: 17% decrease in weight gain
[8] = short-term, duration: 21 days, M, ICR, Hepatic: 27% increase in relative liver weight at ?0.5 mg/kg/day / increases in ALT at ?[…] / hepatocytomegaly at 18 mg/kg/day / necrosis…
[9] = short-term, duration: 28 days, M, CD1, Hepatic: Mild hepatocellular hypertrophy at ?0.29, moderate to severe hypertrophy and single cell necrosis at ?0.96 mg/kg/day / decreased …
[10] = acute, duration: 4 hours, inhalation, M, CD, Ocular: Corneal opacity and corrosion
[11] = acute, duration: 15 hours, inhalation, F, Sprague-Dawley, Body Weight: 12% decrease weight gain on GDs 6-15
[12] = acute, duration: 1 days, dermal, M/F, CD, Dermal: Mild skin irritation

SMILES: O=C([O-])C(F)(F)C(F)(F)C(F)(F)C(F)(F)C(F)(F)C(F)(F)C(F)(F)F.[NH4+] [Ammonium perfluorooctanoate]
- NOAEL (Mus musculus; developmental, duration: 17 days, F): 10 mg/kg-day
- LOAEL (Mus musculus; developmental, duration: 17 days, F, CD1, Developmental: 3 mg/kg/day: reduced weight gain through lactation (14.8% in males and 20.6% in females) / delayed eye opening and hair …): 3 mg/kg-day and 5 mg/kg-day
- LOAEL (Mus musculus; [1]): 5 mg/kg-day
- NOAEL (Mus musculus; [1]): 1 mg/kg-day
- LOAEL (Mus musculus; developmental, duration: 17 days, F, CD1, Developmental: Decreased birth weight (approximately 8%) and body weight at weaning (24%)): 5 mg/kg-day
- LOAEL (Mus musculus; developmental, duration: 17 days, F, CD1, Developmental: Delayed mammary gland development in female pups on PNDs 22-63 + Reproductive: Delayed mammary gland lactational …): 0.0024 mg/kg-day
- LOAEL (Mus musculus; developmental, duration: 17 days, F, CD1, Developmental: Delayed mammary gland development in female pups on PNDs 22-63 and at 18 months): 3 mg/kg-day
- LOAEL (Mus musculus; developmental, duration: 17 days, F, CD1, Developmental: Increased prenatal loss / 40% reduced neonatal body weight on PNDs 5 and 10): 5 mg/kg-day
- LOAEL (Mus musculus; developmental, duration: 17 days, F, CD1, Reproductive: Delayed mammary gland differentiation): 5 mg/kg-day
- LOAEL (Mus musculus; [2]): 0.6 mg/kg-day
- NOAEL (Mus musculus; [2]): 0.3 mg/kg-day
- NOAEL (Mus musculus; reproduction developmental, duration: 11 days, F, CD1, Body Weight: No alterations in dams dosed on GDs 15-17 + Hepatic: Increase in relative liver weight in dams dosed on GDs 13-17, 10-17, or 7-…): 20 mg/kg-day
- NOAEL (Mus musculus; reproduction developmental, duration: 17 days, F, CD1, Hepatic: Significant increase in relative and absolute maternal liver weight on PND 22 at ?3 mg/kg/day): 5 mg/kg-day
- LOAEL (Mus musculus; reproduction developmental, duration: 17 days, F, CD1, Reproductive: Delayed mammary gland lactational differentiation in dams on PND 22): 1 mg/kg-day
- NOAEL (Mus musculus; reproduction developmental, duration: 17 days, F, Hepatic: Increased absolute and relative liver weight of dams on PND 22 at ?1 mg/kg/day): 20 mg/kg-day
- NOAEL (Mus musculus; reproduction developmental, duration: 17 days, M, CD1, 38% increase in absolute liver weight at ?1 mg/kg/day): 1 mg/kg-day
- LOAEL (Mus musculus; [3]): 10 mg/kg-day
- NOAEL (Mus musculus; [3]): 5 mg/kg-day
- NOAEL (Mus musculus; short-term, duration: 14 days, M/F, CD1, Hepatic: 123-155% increase in absolute liver weight in 14 days at ?5.3 mg/kg/day): 537 mg/kg-day
- LOAEL (Mus musculus; [4]): 10 mg/kg-day
- NOAEL (Mus musculus; [4]): 3 mg/kg-day
- NOAEL (Mus musculus; short-term, duration: 14 days, M, CD1, Hepatic: Decreased serum cholesterol levels at ?0.3 mg/kg/day): 30 mg/kg-day
- LOAEL (Mus musculus; [5]): 15 mg/kg-day
- NOAEL (Mus musculus; [5]): 7.5 mg/kg-day
- LOAEL (Mus musculus; [6]): 3.75 mg/kg-day
- NOAEL (Mus musculus; [6]): 1.88 mg/kg-day
- NOAEL (Mus musculus; short-term, duration: 21 days, M/F, CD1, Hepatic: 39-41% increase in absolute liver weight at ?5.4 mg/kg/day): 5.4 mg/kg-day
- NOAEL (Mus musculus; short-term, duration: 21 days, M, ICR): 47 mg/kg-day
- LOAEL (Mus musculus; [7]): 18 mg/kg-day
- NOAEL (Mus musculus; [7]): 2.6 mg/kg-day
- LOAEL (Mus musculus; [8]): 47 mg/kg-day
- NOAEL (Mus musculus; [8]): 18 mg/kg-day
- LOAEL (Mus musculus; short-term, duration: 28 days, F, CD1, 5/5 died before 4th week of study): 58 mg/kg-day
- LOAEL (Mus musculus; short-term, duration: 28 days, F, CD1, Body Weight: Males: final body weight 20% lower than controls / females: final body weight 25% lower than controls): 5.8 mg/kg-day
- NOAEL (Mus musculus; short-term, duration: 28 days, M/F, CD1, Hepatic: 3-fold or greater increased absolute and relative liver weight and hepatocellular hypertrophy at ?5.4 mg/kg/day): 18 mg/kg-day
- LOAEL (Mus musculus; short-term, duration: 28 days, M, CD1, Body Weight: Males: final body weight 20% lower than controls / females: final body weight 25% lower than controls): 5.4 mg/kg-day
- LOAEL (Mus musculus; short-term, duration: 28 days, M, CD1, Body Weight: Weight loss (86% of controls)): 9.6 mg/kg-day
- NOAEL (Mus musculus; short-term, duration: 28 days, M, CD1, Body Weight: Weight loss (86% of controls) + Immunotoxicological: Decreased response to sRBC, decreased number of splenic and thymic …): 0.96 mg/kg-day
- LOAEL (Mus musculus; short-term, duration: 28 days, M, CD1, Death: 4/5 died before end of 4th week): 54 mg/kg-day
- LOAEL (Mus musculus; short-term, duration: 28 days, M, CD1, Death: 5/5 died before 2nd week of study): 180 mg/kg-day
- LOAEL (Mus musculus; [9]): 0.96 mg/kg-day
- NOAEL (Mus musculus; [9]): 0.29 mg/kg-day
- LOAEL (Mus musculus; short-term, duration: 28 days, M, CD1, Immunotoxicological: Decreased response to sRBC, decreased number of splenic and thymic lymphocytes): 9.6 mg/kg-day
- LOAEL (Rattus norvegicus; acute, duration: 1 hours, inhalation, M/F, albino, Neurological: Excessive salivation + Ocular: Red material around the eyes / lacrimation + Respiratory: Red nasal discharge / dry rales): 18600 mg/m3
- LOAEL (Rattus norvegicus; acute, duration: 4 hours, inhalation, M, CD, Body Weight: Weight loss for 1-2 days after exposure (data not shown) + Respiratory: Pulmonary edema): 380 mg/m3
- LOAEL (Rattus norvegicus; acute, duration: 4 hours, inhalation, M, CD, Death: LC50): 980 mg/m3
- LOAEL (Rattus norvegicus; acute, duration: 4 hours, inhalation, M, CD, Gastrointestinal: Stomach irritation): 380 mg/m3
- NOAEL (Rattus norvegicus; acute, duration: 4 hours, inhalation, M, CD, Hepatic: Liver enlargement at 810 mg/m3 / no histological alterations): 810 mg/m3
- LOAEL (Rattus norvegicus; [10]): 810 mg/m3
- NOAEL (Rattus norvegicus; [10]): 380 mg/m3
- LOAEL (Rattus norvegicus; [11]): 10 mg/m3
- NOAEL (Rattus norvegicus; [11]): 1 mg/m3
- LOAEL (Rattus norvegicus; acute, duration: 15 hours, inhalation, F, Sprague-Dawley, Death: 3/12 deaths on GDs 12, 13, and 17): 25 mg/m3
- NOAEL (Rattus norvegicus; acute, duration: 15 hours, inhalation, F, Sprague-Dawley, Hepatic: 18% increase absolute liver weight at 25 mg/m3): 25 mg/m3
- LOAEL (Rattus norvegicus; acute, duration: 1 days, dermal, M/F, CD, Body Weight: 5-7% transient weight loss): 3000 mg/kg-day
- LOAEL (Rattus norvegicus; [12]): 5000 mg/kg-day
- NOAEL (Rattus norvegicus; [12]): 3000 mg/kg-day
- LOAEL (Rattus norvegicus; acute, duration: 1 days, dermal, M, CD, Death: 14-day LD50): 7000 mg/kg-day
- LOAEL (Rattus norvegicus; acute, duration: 1 days, oral, F, albino, Death: LD50): 430 mg/kg-day
- LOAEL (Rattus norvegicus; acute, duration: 1 days, oral, M, albino, Death: LD50): 680 mg/kg-day
- LOAEL (Rattus norvegicus; chronic, duration: 1 years, oral, M, CD, Body Weight: >10% reduced weight gain + Reproductive: Significant increase in serum estradiol at 1, 3, 6, 9, and 12 months (~100-180%) / …): 13.6 mg/kg-day
- NOAEL (Rattus norvegicus; chronic, duration: 1 years, oral, M, CD, Hepatic: Increased relative liver weight): 13.6 mg/kg-day
- NOAEL (Rattus norvegicus; chronic, duration: 2 years, oral, F, Sprague-Dawley): 15 mg/kg-day
- LOAEL (Rattus norvegicus; chronic, duration: 2 years, oral, F, Sprague-Dawley, Body Weight: […] lower terminal body weight): 15 mg/kg-day
